Measured values published in patent US4874600A, “No-carrier-added [1^11 c]putrescine” (The United States of America as Represented by the United …, priority 1986, dated 1989).
Each block holds one compound with its values, some of them ahead of it.

Tests used:
in vivo = conditions: mouse
Description: Male Swiss albino mice (BNL strain, 20-32 g) were used in this study. No-carrier-added [1-^11 C]putrescine (0.05-0.20 μCi/mouse of specific activity greater than 1.4 Ci/μmol; 36-140 pmol/mouse) was injected by tail vein into mice and the animals were killed by cervical dislocation at the desired time interval (5, 30 and 60 minutes). The various organs were rapidly removed, blotted free of blood and placed in preweighed counting vials and the vials were sealed. Tissue samples as well as injection standards were counted in a Packard automated sodium iodide well counter. Both percent injected dose per gram of tissue and percent injected dose per organ were determined from the decay corrected activity.

transplanted rat glioma = conditions: Volkow et al. 1983, cited from earlier work

tissue uptake at 5 min (in vivo; iv): 1.37 ± 0.18 %ID/g
tissue uptake at 0.5 h (in vivo; iv): 0.82 ± 0.11 %ID/g
tissue uptake at 1 h (in vivo; iv): 0.76 ± 0.46 %ID/g
Tissue distribution, Brain (in vivo; iv, 5 min): 0.12 ± 0.01 % Dose/Organ
Tissue distribution, Heart (in vivo; iv, 5 min): 0.19 ± 0.04 % Dose/Organ
Tissue distribution, Kidney (in vivo; iv, 5 min): 10.5 ± 2.0 % Dose/Organ
Tissue distribution, Liver (in vivo; iv, 5 min): 5.96 ± 1.2 % Dose/Organ
Tissue distribution, Lungs (in vivo; iv, 5 min): 0.57 ± 0.08 % Dose/Organ
Tissue distribution, Small Intestine (in vivo; iv, 5 min): 13.7 ± 5.0 % Dose/Organ
Tissue distribution, Spleen (in vivo; iv, 5 min): 0.57 ± 0.35 % Dose/Organ
Tissue distribution, Brain (in vivo; iv, 30 min): 0.15 ± 0.01 % Dose/Organ
Tissue distribution, Heart (in vivo; iv, 30 min): 0.15 ± 0.02 % Dose/Organ
Tissue distribution, Kidney (in vivo; iv, 30 min): 2.63 ± 0.36 % Dose/Organ
Tissue distribution, Liver (in vivo; iv, 30 min): 4.85 ± 0.75 % Dose/Organ
Tissue distribution, Lungs (in vivo; iv, 30 min): 0.48 ± 0.08 % Dose/Organ
Tissue distribution, Small Intestine (in vivo; iv, 30 min): 7.61 ± 2.00 % Dose/Organ
Tissue distribution, Spleen (in vivo; iv, 30 min): 0.56 ± 0.25 % Dose/Organ
Tissue distribution, Brain (in vivo; iv, 60 min): 0.13 ± 0.01 % Dose/Organ
Tissue distribution, Heart (in vivo; iv, 60 min): 0.12 ± 0.01 % Dose/Organ
Tissue distribution, Kidney (in vivo; iv, 60 min): 1.27 ± 0.21 % Dose/Organ
Tissue distribution, Liver (in vivo; iv, 60 min): 3.70 ± 0.50 % Dose/Organ
Tissue distribution, Lungs (in vivo; iv, 60 min): 0.43 ± 0.08 % Dose/Organ
Tissue distribution, Small Intestine (in vivo; iv, 60 min): 4.40 ± 1.66 % Dose/Organ
Tissue distribution, Spleen (in vivo; iv, 60 min): 0.48 ± 0.16 % Dose/Organ
SMILES: NCCC[11CH2]N [no-carrier-added [1-^11 C]putrescine, [1-^11 C]putrescine]
accumulation of activity in normal brain compared with other tissues (in words) (in vivo): less in the normal brain than for other tissues
tissues of main uptake (in words) (in vivo): taken up by the liver, kidneys, and small intestine

SMILES: NCCCCN [putrescine]
in vivo uptake into transplanted rat glioma relative to normal brain tissue (transplanted rat glioma; transplanted rat glioma vs normal brain tissue): 35 times greater
metabolism to spermine by the tumor (in words) (transplanted rat glioma; transplanted rat glioma, in contrast to adjacent normal brain tissue): rapid
